What is called inhibition is the drop in the measured response relative to a control, in per cent.

The source of these data is US20260306527A1, “PRMT INHIBITOR COMPOUNDS AND THE USES THEREOF” (Purdue Research Foundation, priority 2023, published 2026).

Holding throughout (type): biochemical
Assay [1] deals with T1, PRMT1 (Homo sapiens, UniProt Q99873).
T1 construct: made in house
In words: SAHH-coupled fluorescence assay, inhibition of PRMT1. Here is the method: (§1) A fluorescence-based SAHH-coupled assay was applied to study the inhibition activity of all synthesized compounds on PRMT 1 and 3.
(§2) The PRMT1 methylation assay was performed under the following conditions in a final well volume of 100 μL: 2.5 mM HEPES (pH=7.0), 25 mM NaCl, 25 μM EDTA, 50 μM TCEP, 0.01% Triton X-100, 5 μM SAHH, 0.1 μM PRMT1, 10 μM AdoMet, and 10 μM ThioGlo4. […] The fluorescence signal was monitored on a BMG CLARIOstar microplate reader with excitation at 400 nm and emission at 465 nm for 15 min. Data were processed using GraphPad Prism software 8.0.
(§3) Next, the inhibition activity of the library was investigated for five PRMT members from type I PRMTs.
as §2, with “A fluorescence-based SAHH-coupled assay was applied to determine the inhibition activity of all synthesized compounds on PRMT 1 and 3. The PRMT1” for “The PRMT1”, “software 8.0. All experiments were performed in duplicate.” for “software 8.0.”

The target of assay [2] is PRMT6 (Homo sapiens, UniProt Q96LA8). The experiment in a line: radioactive assay (Reaction Biology Corp.), inhibition of PRMT6. To be noted: for PRMT6 inhibition: 10 μM. The procedure: as §3
Sequence of PRMT6 (Q96LA8 whole entry, species assumed): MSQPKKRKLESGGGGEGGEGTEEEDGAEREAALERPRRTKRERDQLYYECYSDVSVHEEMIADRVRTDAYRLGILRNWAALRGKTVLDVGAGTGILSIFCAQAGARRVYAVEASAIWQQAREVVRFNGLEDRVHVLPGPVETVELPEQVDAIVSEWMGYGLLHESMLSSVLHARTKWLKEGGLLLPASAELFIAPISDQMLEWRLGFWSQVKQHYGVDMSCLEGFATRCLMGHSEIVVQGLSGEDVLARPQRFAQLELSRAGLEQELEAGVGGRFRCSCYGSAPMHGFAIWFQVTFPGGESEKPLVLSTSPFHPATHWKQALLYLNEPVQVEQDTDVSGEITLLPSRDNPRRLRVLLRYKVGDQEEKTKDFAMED
(§4) The PRMT 4, 6 and 8 methylation assays were performed by Reaction Biology corp.

The target in assay [3] is PRMT3 (Homo sapiens, UniProt O60678). The experiment in a line: SAHH-coupled fluorescence assay, inhibition of PRMT3. Details: PRMT3 (residues 211-531) was cloned into the pET28a-MHL expression vector; tag of the pET28a-MHL vector (not described); made in house; host or cells: Escherichia coli BL21(DE3). Here is the method: as §1
Sequence of PRMT3 (O60678 211-531): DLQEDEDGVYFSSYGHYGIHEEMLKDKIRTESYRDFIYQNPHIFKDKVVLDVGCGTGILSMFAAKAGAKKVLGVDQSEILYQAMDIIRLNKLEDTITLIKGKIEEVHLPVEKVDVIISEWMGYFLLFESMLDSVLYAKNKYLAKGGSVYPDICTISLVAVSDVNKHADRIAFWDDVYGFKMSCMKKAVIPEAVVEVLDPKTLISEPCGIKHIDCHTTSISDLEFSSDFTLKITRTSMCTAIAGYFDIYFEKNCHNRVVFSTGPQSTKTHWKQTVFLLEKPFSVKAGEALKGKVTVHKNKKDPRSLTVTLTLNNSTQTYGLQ
The PRMT3 methylation assay was performed under the following conditions in a final well volume of 100 μL: 20 mM Tris (pH=7.5), 0.01% Triton X-100, 5 μM SAHH, 0.25 μM PRMT3, 30 μM AdoMet, and 15 μM ThioGlo4. […] Fluorescence was monitored on a BMG CLARIOstar microplate reader with excitation 380 nm and emission 505 nm. Data were processed by using GraphPad Prism software 8.0. All experiments were performed in duplicate.
as §3
The PRMT3 methylation assay was performed under the following conditions in a final well volume of 100 μL: 20 mM Tris (pH=7.5), 0.01% Triton X-100, 5 μM SAHH, 0.25 μM PRMT3, 30 μM AdoMet, and 15 μM ThioGlo4. […] Fluorescence was monitored on a BMG CLARIOstar microplate reader with excitation 380 nm and emission 505 nm. Data were processed by using GraphPad Prism software 8.0.

Assay [4] has as its target T2, PRMT4 (Homo sapiens, UniProt Q86X55).
T2 sequence (Q86X55 1-608): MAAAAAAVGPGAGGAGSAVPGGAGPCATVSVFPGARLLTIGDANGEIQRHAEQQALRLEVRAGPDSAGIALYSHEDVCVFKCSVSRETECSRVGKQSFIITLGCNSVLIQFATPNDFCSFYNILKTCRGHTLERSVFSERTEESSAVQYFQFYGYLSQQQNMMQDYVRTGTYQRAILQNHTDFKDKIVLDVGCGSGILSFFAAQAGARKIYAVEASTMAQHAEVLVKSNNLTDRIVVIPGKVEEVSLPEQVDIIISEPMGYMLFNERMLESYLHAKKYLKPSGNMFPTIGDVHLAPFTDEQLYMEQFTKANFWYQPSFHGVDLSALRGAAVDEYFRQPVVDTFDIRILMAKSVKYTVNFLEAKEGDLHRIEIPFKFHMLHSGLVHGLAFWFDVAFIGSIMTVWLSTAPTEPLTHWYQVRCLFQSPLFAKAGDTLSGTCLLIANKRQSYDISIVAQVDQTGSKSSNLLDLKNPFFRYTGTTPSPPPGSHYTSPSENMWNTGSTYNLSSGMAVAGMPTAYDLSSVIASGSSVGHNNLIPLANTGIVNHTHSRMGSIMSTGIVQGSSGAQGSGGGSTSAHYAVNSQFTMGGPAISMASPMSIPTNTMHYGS
The experiment in a line: radioactive assay (Reaction Biology Corp.), inhibition of PRMT4. The procedure:
as §3, §4

In assay [5] the target is PRMT8 (Homo sapiens, UniProt Q9NR22). In words: radioactive assay (Reaction Biology Corp.), inhibition of PRMT8. Here is the method:
as §3, §4

T1 sequence (Q99873 whole entry, species assumed): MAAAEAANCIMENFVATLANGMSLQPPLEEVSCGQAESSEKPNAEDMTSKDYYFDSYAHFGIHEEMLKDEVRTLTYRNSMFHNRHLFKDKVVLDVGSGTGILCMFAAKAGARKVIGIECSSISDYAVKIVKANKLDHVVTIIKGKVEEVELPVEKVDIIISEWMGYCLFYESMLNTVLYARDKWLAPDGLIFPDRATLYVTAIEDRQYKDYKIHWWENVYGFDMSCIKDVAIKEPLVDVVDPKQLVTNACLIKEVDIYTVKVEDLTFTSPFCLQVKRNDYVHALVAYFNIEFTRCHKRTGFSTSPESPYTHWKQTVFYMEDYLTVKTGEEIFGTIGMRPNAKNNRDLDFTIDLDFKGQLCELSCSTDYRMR
Sequence of PRMT8 (Q9NR22 whole entry, species assumed): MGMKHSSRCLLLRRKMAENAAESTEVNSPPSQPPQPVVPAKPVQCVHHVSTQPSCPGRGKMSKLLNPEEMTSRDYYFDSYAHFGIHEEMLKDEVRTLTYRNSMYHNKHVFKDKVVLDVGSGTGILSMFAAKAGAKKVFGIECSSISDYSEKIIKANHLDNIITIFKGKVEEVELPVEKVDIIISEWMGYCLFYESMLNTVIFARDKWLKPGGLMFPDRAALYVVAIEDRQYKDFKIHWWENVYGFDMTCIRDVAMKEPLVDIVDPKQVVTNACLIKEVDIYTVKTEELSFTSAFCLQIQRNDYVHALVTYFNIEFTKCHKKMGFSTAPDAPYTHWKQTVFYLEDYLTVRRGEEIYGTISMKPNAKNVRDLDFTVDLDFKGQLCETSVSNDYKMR

`Nc1cccc(-c2cccc(CNCCSC[C@H]3O[C@@H](n4cnc5c(N)ncnc54)[C@H](O)[C@@H]3O)c2)c1` [Compound 10l]: the inhibition at 10 µM in assay [1] was determined as 7%; in assay [2], 53%; in assay [3], 8%; in assay [4], 100%; in assay [5], 62%.
The corresponding values for `Nc1ncnc2c1ncn2[C@@H]1O[C@H](CSCCCNCc2cccc(-c3ccc(O)cc3)c2)[C@@H](O)[C@H]1O` [Compound 10n] are 57%, 36%, 21%, 96% and 69%.
For the compound `Nc1ncnc2c1ncn2[C@@H]1O[C@H](CSCCCNCc2cccc(-c3ccc(C(F)(F)F)cc3)c2)[C@@H](O)[C@H]1O` [Compound 10o], the inhibition at 10 µM in assay [1] came out at 71%; in assay [2], 37%; in assay [3], 24%; in assay [4], 97%; in assay [5], 65%.
Turning to `Nc1ncnc2c1ncn2[C@@H]1O[C@H](CSCCCNCc2cccc(-c3ccoc3)c2)[C@@H](O)[C@H]1O` [Compound 10p], the inhibition at 10 µM in assay [1] came out at 54%; in assay [2], 66%; in assay [3], 25%; in assay [4], 99%; in assay [5], 54%.
As to `Nc1ncnc2c1ncn2[C@@H]1O[C@H](CSCCCNCc2cccc(-c3cccc(F)c3)c2)[C@@H](O)[C@H]1O` [Compound 10q], the inhibition at 10 µM in assay [1] is 63%; in assay [2] it was 36%; in assay [3], 25%; in assay [4], 97%; in assay [5], 66%.
On the same counts, the results for `Nc1ncnc2c1ncn2[C@@H]1O[C@H](CSCCCNCc2cccc(-c3ccc(F)c(O)c3)c2)[C@@H](O)[C@H]1O` [Compound 10r] are 52%, 74%, 22%, 95% and 72%.
`Nc1ncnc2c1ncn2[C@@H]1O[C@H](CSCCCNCc2cccc(-c3cccc4cn[nH]c34)c2)[C@@H](O)[C@H]1O` [Compound 10t]: the inhibition at 10 µM in assay [1] was determined as 69%; in assay [2], 87%; in assay [3], 22%; in assay [4] it was 99%; in assay [5], 72%.
Turning to `COc1cc2nc(-c3ccc(Cl)cc3)nc(NCCSC[C@H]3O[C@@H](n4cnc5c(N)ncnc54)[C@H](O)[C@@H]3O)c2cc1OC` [Compound 12a], the inhibition at 10 µM in assay [1] amounted to 1%; in assay [2] it was 85%; in assay [3], 4%; in assay [4] it was 69%; in assay [5] it was 23%. In assay [2], the “PRMT6 inhibition” value is listed as “selective inhibition to PRMT6”.
`COc1cc2nc(-c3ccc(O)cc3)nc(NCCSC[C@H]3O[C@@H](n4cnc5c(N)ncnc54)[C@H](O)[C@@H]3O)c2cc1OC` [Compound 12b]: the inhibition at 10 µM in assay [1] is 2%; in assay [2], 91%; in assay [3] it was 13%; in assay [4], -4%; in assay [5], 22%. For the same compound, the “PRMT6 inhibition” value in assay [2] is “selective inhibition to PRMT6”.
With `COc1cc2nc(-c3cccc(F)c3)nc(NCCSC[C@H]3O[C@@H](n4cnc5c(N)ncnc54)[C@H](O)[C@@H]3O)c2cc1OC` [Compound 12c], the inhibition at 10 µM in assay [1] came out at 15%; in assay [2] it was 43%; in assay [3], 15%; in assay [4], 62%; in assay [5] it was 35%.
Consider `COc1cc2nc(-c3ccoc3)nc(NCCSC[C@H]3O[C@@H](n4cnc5c(N)ncnc54)[C@H](O)[C@@H]3O)c2cc1OC` [Compound 12d], for which the inhibition at 10 µM in assay [1] was found to be 2%; in assay [2] it was 16%; in assay [3], 10%; in assay [4], 1%; in assay [5], 25%.
The corresponding values for `COc1cc2nc(-c3ccc(C(F)(F)F)cc3)nc(NCCSC[C@H]3O[C@@H](n4cnc5c(N)ncnc54)[C@H](O)[C@@H]3O)c2cc1OC` [Compound 12e] are 3%, 19%, 5%, 43% and 37%.
For the compound `COc1cc2nc(-c3ccc(F)c(O)c3)nc(NCCSC[C@H]3O[C@@H](n4cnc5c(N)ncnc54)[C@H](O)[C@@H]3O)c2cc1OC` [Compound 12f], the inhibition at 10 µM in assay [1] amounted to 12%; in assay [2], 16%; in assay [3], 9%; in assay [4], 51%; in assay [5], 21%.
The corresponding values for `COc1cc2nc(-c3cccc(O)c3)nc(NCCSC[C@H]3O[C@@H](n4cnc5c(N)ncnc54)[C@H](O)[C@@H]3O)c2cc1OC` [Compound 12g] are 2%, 13%, 4%, 10% and 25%.
On the same counts, the results for `COc1cc2nc(-c3ccccc3O)nc(NCCSC[C@H]3O[C@@H](n4cnc5c(N)ncnc54)[C@H](O)[C@@H]3O)c2cc1OC` [Compound 12h] are 1%, 16%, 12%, 36% and 18%.
On the same counts, the results for `COc1cc2nc(-c3ccc(N)cc3)nc(NCCSC[C@H]3O[C@@H](n4cnc5c(N)ncnc54)[C@H](O)[C@@H]3O)c2cc1OC` [Compound 12j] are 12%, 8%, 13%, 1% and 21%.
Turning to `Nc1ncnc2c1ncn2[C@@H]1O[C@H](CSCCOc2ccc(-c3ccc(Cl)cc3)cc2)[C@@H](O)[C@H]1O` [Compound 14a], the inhibition at 10 µM in assay [1] is 2%; in assay [2], -4%; in assay [3] it was 9%; in assay [4], 47%; in assay [5] it was 38%.
On the same counts, the results for `Nc1ncnc2c1ncn2[C@@H]1O[C@H](CSCCOc2ccc(-c3ccc(O)cc3)cc2)[C@@H](O)[C@H]1O` [Compound 14b] are 8%, 20%, 6%, 13% and 20%.
